Patent publication US5210193A, “Piperazine derivatives” (American Cyanamid Company, priority 1990, dated 1993)
Converted amounts (≈) assume the structure as drawn. Like-named read-outs stand apart in the source and are kept apart here.

Key:
Assay in all cases: in vitro antibacterial MIC, agar plate dilution
Type in all cases: cell-based
[1] = system: Enterobacter cloacae VGH 84-37; details: 35° C.
In short: (§1)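 Minimal inhibitory concentrations came from agar plate dilution in Mueller-Hinton medium. Each organism was delivered at roughly 10^4 CFU by Steers replicator. Plates were read for visible growth after 18 hours at 35° C, values in mcg/ml.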

[2] = system: Staphylococcus aureus CMC 83-127; details: 35° C.
In short: as §1

[3] = system: Pseudomonas aeruginosa LL-1244; details: 35° C.
In short: as §1

[4] = system: Klebsiella pneumoniae MOR 84-4; details: 35° C.
In short: as §1

[5] = system: Serratia marcescens K 84-18; details: 35° C.
In short: as §1

[6] = system: Escherichia coli CMC 84-16; details: 35° C.
In short: as §1

[7] = system: Streptococcus faecalis ATTC 29212; details: 35° C.
In short: as §1

[8] = system: Proteus rettgeri CMC 84-41; details: 35° C.
In short: as §1

[9] = system: Staphylococcus Spp saprophiticus VGH 84-50; details: 18 hours, 35° C.
In short: as §1

[10] = system: Morganella morganii CMC 84-37; details: 35° C.
In short: as §1

[11] = system: Morganella morganii VGH 84-11; details: 35° C.
In short: as §1

[12] = system: Escherichia coli ATCC 25922; details: 35° C.
In short: as §1

[13] = system: Streptococcus faecalis VGH 84-65; details: 35° C.
In short: as §1

[14] = system: Staphylococcus aureus VGH 84-46; details: 35° C.
In short: as §1

[15] = system: Staphylococcus epidermidis CMC 83-135; details: 35° C.
In short: as §1

[16] = system: Staphylococcus aureus Smith; details: 35° C.
In short: as §1

[17] = system: Escherichia coli CMC 84-11; details: 35° C.
In short: as §1

[18] = system: Staphylococcus epidermidis VGH 84-40; details: 35° C.
In short: as §1

[19] = system: Serratia marcescens F 0-35; details: 35° C.
In short: as §1

[20] = system: Enterobacter aerogenes VGH 84-36; details: 35° C.
In short: as §1

[21] = system: Staphylococcus aureus VGH 84-45; details: 35° C.
In short: as §1

[22] = system: Staphylococcus aureus CMC 83-128; details: 35° C.
In short: as §1

[23] = system: Acinetobacter calcoaceticus MOR 84-43; details: 35° C.
In short: as §1

[24] = system: Staphylococcus epidermidis IO 83-58; details: 35° C.
In short: as §1

[25] = system: Staphylococcus aureus ATTC 29213; details: 35° C.
In short: as §1

Klebsiella pneumoniae AD = details: 35° C.
In short: as §1

Escherichia coli NAR 311 = details: 35° C.
In short: as §1

[26] = system: Escherichia coli PRNT 311; details: 35° C.
In short: as §1

[27] = system: Pseudomonas aeruginosa VGH 84-4; details: 35° C.
In short: as §1

[28] = system: Enterobacter cloacae K 84-10; details: 35° C.
In short: as §1

[29] = Enterobacter cloacae, VGH8437, 18 h, read-out: MIC
[30] = Staphylococcus aureus, CMC83127, 18 h, read-out: MIC
[31] = Pseudomonas aeruginosa, LL1244, 18 h, read-out: MIC
[32] = Klebsiella pneumoniae, MOR844, 18 h, read-out: MIC
[33] = Serratia marcescens, K8418, 18 h, read-out: MIC
[34] = Escherichia coli, CMC8416, 18 h, read-out: MIC
[35] = Enterococcus faecalis, ATTC29212, 18 hours, read-out: MIC
[36] = Providencia rettgeri, CMC8441, 18 h, read-out: MIC
[37] = Morganella morganii, CMC8437, 18 h, read-out: MIC
[38] = VGH8411, 18 hours, read-out: MIC
[39] = Escherichia coli, ATCC25922, 18 h, read-out: MIC
[40] = Enterococcus faecalis, VGH8465, 18 h, read-out: MIC
[41] = CMC83135, 18 hours, read-out: MIC
[42] = Escherichia coli, CMC8411, 18 h, read-out: MIC
[43] = VGH8440, 18 hours, read-out: MIC
[44] = Serratia marcescens, F035, 18 h, read-out: MIC
[45] = Klebsiella aerogenes, VGH8436, 18 hours, read-out: MIC
[46] = Staphylococcus aureus, VGH8445, 18 h, read-out: MIC
[47] = CMC83128, 18 hours, read-out: MIC
[48] = MOR8443, 18 hours, read-out: MIC
[49] = IO8358, 18 hours, read-out: MIC
[50] = Staphylococcus aureus, ATTC29213, 18 h, read-out: MIC
[51] = Klebsiella pneumoniae, 18 h, read-out: MIC
[52] = NAR311, 18 hours, read-out: MIC
[53] = PRNT311, 18 hours, read-out: MIC
[54] = Pseudomonas aeruginosa, VGH844, 18 h, read-out: MIC
[55] = Enterobacter cloacae, K8410, 18 h, read-out: MIC

`CCn1cc(C(=O)O)c(=O)c2cc(F)c(N3CCNC(CF)C3)c(F)c21` (racemic) [Example 63, (racemic)-N-Ethyl-6,8-difluoro-7-[3-(fluoromethyl)-1-piperazinyl]-1,4-dihydro-4-oxo-3-quinolinecarboxylic acid] showed an MIC [1, 29] of 0.5 µg/mL (≈ 1.35 µM), an MIC [2, 30] of 0.12 µg/mL (≈ 0.325 µM) and an MIC [3, 31] of 8 µg/mL (≈ 21.7 µM). It also gave an MIC [4, 32] of 0.12 µg/mL (≈ 0.325 µM), an MIC [5, 33] of 0.06 µg/mL (≈ 0.162 µM) and an MIC [6, 34] of 0.06 µg/mL (≈ 0.162 µM). It also gave an MIC [7, 35] of 4 µg/mL (≈ 10.8 µM), an MIC [8, 36] of 0.5 µg/mL (≈ 1.35 µM) and an MIC ([9]; read-out: MIC) of 0.06 µg/mL (≈ 0.162 µM). For the same molecule, the MIC [10, 37] was 0.12 µg/mL (≈ 0.325 µM), the MIC [11, 38] was 0.5 µg/mL (≈ 1.35 µM) and the MIC [12, 39] was 0.06 µg/mL (≈ 0.162 µM). It also gave an MIC [13, 40] of 4 µg/mL (≈ 10.8 µM), an MIC ([14]; Staphylococcus aureus, VGH8446, 18 h, read-out: MIC) of 0.25 µg/mL (≈ 0.677 µM) and an MIC [15, 41] of 0.5 µg/mL (≈ 1.35 µM). The MIC ([16]; Staphylococcus aureus, 18 h, read-out: MIC) was 0.25 µg/mL (≈ 0.677 µM), the MIC [17, 42] was 0.06 µg/mL (≈ 0.162 µM) and the MIC [18, 43] was 0.25 µg/mL (≈ 0.677 µM). It also gave an MIC [19, 44] of 0.5 µg/mL (≈ 1.35 µM), an MIC [20, 45] of 0.25 µg/mL (≈ 0.677 µM) and an MIC [21, 46] of 0.25 µg/mL (≈ 0.677 µM). For the same molecule, the MIC [22, 47] was 0.03 µg/mL (≈ 0.0812 µM), the MIC [23, 48] was 0.5 µg/mL (≈ 1.35 µM) and the MIC [24, 49] was 0.25 µg/mL (≈ 0.677 µM). For the same molecule, the MIC [25, 50] was 0.25 µg/mL (≈ 0.677 µM), the MIC (Klebsiella pneumoniae AD; [51]) was 0.12 µg/mL (≈ 0.325 µM) and the MIC (Escherichia coli NAR 311; [52]) was 1 µg/mL (≈ 2.71 µM). It also gave an MIC [26, 53] of 0.12 µg/mL (≈ 0.325 µM), an MIC [27, 54] of 2 µg/mL (≈ 5.42 µM) and an MIC [28, 55] of 0.12 µg/mL (≈ 0.325 µM).
For `CCn1cc(C(=O)O)c(=O)c2cc(F)c(N3CCNC(CF)C3)c(F)c21` (single isomer, unassigned; (+)) [Example 65, (+)-N-Ethyl-6,8-difluoro-7-[3-(fluoromethyl)-1-piperazinyl]-1,4-dihydro-4-oxo-3-quinolinecarboxylic acid], the MIC ([1]; 18 hours) was 0.12 µg/mL (≈ 0.325 µM), the MIC ([2]; 18 hours) was 0.12 µg/mL (≈ 0.325 µM) and the MIC ([3]; 18 hours) was 8 µg/mL (≈ 21.7 µM). It also gave an MIC ([4]; 18 hours) of 0.12 µg/mL (≈ 0.325 µM), an MIC ([5]; 18 hours) of 0.25 µg/mL (≈ 0.677 µM) and an MIC ([6]; 18 hours) of 0.06 µg/mL (≈ 0.162 µM). It also gave an MIC ([7]; 18 hours) of 4 µg/mL (≈ 10.8 µM), an MIC ([8]; 18 hours) of 0.25 µg/mL (≈ 0.677 µM) and an MIC [9] of 1 µg/mL (≈ 2.71 µM). For the same molecule, the MIC ([10]; 18 hours) was 0.12 µg/mL (≈ 0.325 µM), the MIC ([11]; 18 hours) was 0.12 µg/mL (≈ 0.325 µM) and the MIC ([12]; 18 hours) was 0.06 µg/mL (≈ 0.162 µM). For the same molecule, the MIC ([13]; 18 hours) was 4 µg/mL (≈ 10.8 µM), the MIC ([14]; 18 hours) was 0.25 µg/mL (≈ 0.677 µM) and the MIC ([15]; 18 hours) was 0.25 µg/mL (≈ 0.677 µM). For the same molecule, the MIC ([16]; 18 hours) was 0.25 µg/mL (≈ 0.677 µM), the MIC ([17]; 18 hours) was 0.06 µg/mL (≈ 0.162 µM) and the MIC ([18]; 18 hours) was 0.25 µg/mL (≈ 0.677 µM). It also gave an MIC ([19]; 18 hours) of 0.25 µg/mL (≈ 0.677 µM), an MIC ([20]; 18 hours) of 0.12 µg/mL (≈ 0.325 µM) and an MIC ([21]; 18 hours) of 0.12 µg/mL (≈ 0.325 µM). The MIC ([22]; 18 hours) was 0.25 µg/mL (≈ 0.677 µM), the MIC ([23]; 18 hours) was 0.5 µg/mL (≈ 1.35 µM) and the MIC ([24]; 18 hours) was 0.25 µg/mL (≈ 0.677 µM). It also gave an MIC ([25]; 18 hours) of 0.25 µg/mL (≈ 0.677 µM), an MIC (Klebsiella pneumoniae AD; 18 hours) of 0.12 µg/mL (≈ 0.325 µM) and an MIC (Escherichia coli NAR 311; 18 hours) of 1 µg/mL (≈ 2.71 µM). For the same molecule, the MIC ([26]; 18 hours) was 0.06 µg/mL (≈ 0.162 µM), the MIC ([27]; 18 hours) was 1 µg/mL (≈ 2.71 µM) and the MIC ([28]; 18 hours) was 0.06 µg/mL (≈ 0.162 µM).
`CCn1cc(C(=O)O)c(=O)c2cc(F)c(N3CCNC(CF)C3)c(F)c21` (single isomer, unassigned; (-)) [Example 64, (-)-N-Ethy6,8-difluoro-7-[3-(fluoromethyl)-1-piperazinyl]-1,4-dihydro-4-oxo-3-quinolinecarboxylic acid] showed an MIC [1, 29] of 0.06 µg/mL (≈ 0.162 µM), an MIC [2, 30] of 0.06 µg/mL (≈ 0.162 µM) and an MIC [3, 31] of 8 µg/mL (≈ 21.7 µM). The MIC [4, 32] was 0.06 µg/mL (≈ 0.162 µM), the MIC [5, 33] was 0.25 µg/mL (≈ 0.677 µM) and the MIC [6, 34] was 0.03 µg/mL (≈ 0.0812 µM). The MIC [7, 35] was 4 µg/mL (≈ 10.8 µM), the MIC [8, 36] was 0.25 µg/mL (≈ 0.677 µM) and the MIC ([9]; read-out: MIC) was 1 µg/mL (≈ 2.71 µM). The MIC [10, 37] was 0.06 µg/mL (≈ 0.162 µM), the MIC [11, 38] was 0.12 µg/mL (≈ 0.325 µM) and the MIC [12, 39] was 0.03 µg/mL (≈ 0.0812 µM). For the same molecule, the MIC [13, 40] was 4 µg/mL (≈ 10.8 µM), the MIC ([14]; 18 hours) was 0.12 µg/mL (≈ 0.325 µM) and the MIC [15, 41] was 0.25 µg/mL (≈ 0.677 µM). It also gave an MIC ([16]; 18 hours) of 0.12 µg/mL (≈ 0.325 µM), an MIC [17, 42] of 0.03 µg/mL (≈ 0.0812 µM) and an MIC [18, 43] of 0.25 µg/mL (≈ 0.677 µM). It also gave an MIC [19, 44] of 0.5 µg/mL (≈ 1.35 µM), an MIC [20, 45] of 0.12 µg/mL (≈ 0.325 µM) and an MIC [21, 46] of 0.12 µg/mL (≈ 0.325 µM). For the same molecule, the MIC [22, 47] was 0.25 µg/mL (≈ 0.677 µM), the MIC [23, 48] was 0.5 µg/mL (≈ 1.35 µM) and the MIC [24, 49] was 0.25 µg/mL (≈ 0.677 µM). It also gave an MIC [25, 50] of 0.25 µg/mL (≈ 0.677 µM), an MIC (Klebsiella pneumoniae AD; [51]) of 0.06 µg/mL (≈ 0.162 µM) and an MIC (Escherichia coli NAR 311; [52]) of 1 µg/mL (≈ 2.71 µM). For the same molecule, the MIC [26, 53] was 0.06 µg/mL (≈ 0.162 µM), the MIC [27, 54] was 2 µg/mL (≈ 5.42 µM) and the MIC [28, 55] was 0.06 µg/mL (≈ 0.162 µM).
